The target in this assay is IKZF2 (Homo sapiens (Human), UniProt Q96SW2+Q9UKS7). The experiment in a line: IKZF2 HiBiT Assay (Jurkat-IKZF2-HiBiT cell line). Type of assay: cell-based. To be noted: Jurkat-IKZF2-HiBiT cells, 24 hours; for DC50: read-out: HiBit assay degradation analysis DC50; for Dmax: read-out: HiBit assay degradation analysis Dmax. The method in brief:
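Jurkat cells carrying HiBiT-tagged IKZF2 were exposed to serially diluted compound for 24 h at 37 °C. Remaining IKZF2 was measured by Nano-Glo HiBiT lytic luminescence after 10-20 min at room temperature. Signal was normalized to DMSO, and IC50 came from a four-parameter variable-slope fit.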
Background: The HiBiT peptide binds its large partner to form an active luciferase.

For orientation: DC50 means the midpoint of the concentration-degradation curve. What is called Dmax is the largest share of the target that was removed.

Chain of IKZF2 (Q9UKS7 whole entry): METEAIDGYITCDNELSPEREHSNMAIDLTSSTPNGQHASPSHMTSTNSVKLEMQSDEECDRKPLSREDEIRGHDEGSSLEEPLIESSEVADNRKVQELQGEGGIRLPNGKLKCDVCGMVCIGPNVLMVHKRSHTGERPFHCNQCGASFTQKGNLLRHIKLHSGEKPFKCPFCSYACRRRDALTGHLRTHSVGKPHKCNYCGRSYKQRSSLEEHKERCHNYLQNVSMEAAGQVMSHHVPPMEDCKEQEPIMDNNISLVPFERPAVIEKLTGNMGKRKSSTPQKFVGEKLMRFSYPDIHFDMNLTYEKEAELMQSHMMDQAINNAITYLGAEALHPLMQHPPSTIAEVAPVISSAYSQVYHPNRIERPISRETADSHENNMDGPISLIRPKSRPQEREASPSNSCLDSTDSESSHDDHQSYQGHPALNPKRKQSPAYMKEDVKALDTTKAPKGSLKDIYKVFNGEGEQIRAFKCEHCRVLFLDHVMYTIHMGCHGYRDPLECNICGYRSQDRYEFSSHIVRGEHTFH
Chain of IKZF2 (Q96SW2 whole entry): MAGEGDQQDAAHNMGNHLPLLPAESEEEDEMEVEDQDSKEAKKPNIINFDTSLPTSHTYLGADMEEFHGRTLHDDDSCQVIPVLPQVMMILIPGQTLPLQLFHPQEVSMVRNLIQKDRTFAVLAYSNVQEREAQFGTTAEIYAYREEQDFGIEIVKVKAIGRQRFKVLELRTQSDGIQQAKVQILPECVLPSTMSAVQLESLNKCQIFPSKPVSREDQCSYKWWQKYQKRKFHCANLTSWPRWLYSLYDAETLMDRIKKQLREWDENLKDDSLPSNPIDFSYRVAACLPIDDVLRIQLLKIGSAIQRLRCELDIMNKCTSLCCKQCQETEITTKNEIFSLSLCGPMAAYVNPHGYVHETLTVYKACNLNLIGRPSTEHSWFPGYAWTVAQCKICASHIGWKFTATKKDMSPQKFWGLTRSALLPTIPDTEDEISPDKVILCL
Chain of IKZF2 (Q16531 whole entry partner): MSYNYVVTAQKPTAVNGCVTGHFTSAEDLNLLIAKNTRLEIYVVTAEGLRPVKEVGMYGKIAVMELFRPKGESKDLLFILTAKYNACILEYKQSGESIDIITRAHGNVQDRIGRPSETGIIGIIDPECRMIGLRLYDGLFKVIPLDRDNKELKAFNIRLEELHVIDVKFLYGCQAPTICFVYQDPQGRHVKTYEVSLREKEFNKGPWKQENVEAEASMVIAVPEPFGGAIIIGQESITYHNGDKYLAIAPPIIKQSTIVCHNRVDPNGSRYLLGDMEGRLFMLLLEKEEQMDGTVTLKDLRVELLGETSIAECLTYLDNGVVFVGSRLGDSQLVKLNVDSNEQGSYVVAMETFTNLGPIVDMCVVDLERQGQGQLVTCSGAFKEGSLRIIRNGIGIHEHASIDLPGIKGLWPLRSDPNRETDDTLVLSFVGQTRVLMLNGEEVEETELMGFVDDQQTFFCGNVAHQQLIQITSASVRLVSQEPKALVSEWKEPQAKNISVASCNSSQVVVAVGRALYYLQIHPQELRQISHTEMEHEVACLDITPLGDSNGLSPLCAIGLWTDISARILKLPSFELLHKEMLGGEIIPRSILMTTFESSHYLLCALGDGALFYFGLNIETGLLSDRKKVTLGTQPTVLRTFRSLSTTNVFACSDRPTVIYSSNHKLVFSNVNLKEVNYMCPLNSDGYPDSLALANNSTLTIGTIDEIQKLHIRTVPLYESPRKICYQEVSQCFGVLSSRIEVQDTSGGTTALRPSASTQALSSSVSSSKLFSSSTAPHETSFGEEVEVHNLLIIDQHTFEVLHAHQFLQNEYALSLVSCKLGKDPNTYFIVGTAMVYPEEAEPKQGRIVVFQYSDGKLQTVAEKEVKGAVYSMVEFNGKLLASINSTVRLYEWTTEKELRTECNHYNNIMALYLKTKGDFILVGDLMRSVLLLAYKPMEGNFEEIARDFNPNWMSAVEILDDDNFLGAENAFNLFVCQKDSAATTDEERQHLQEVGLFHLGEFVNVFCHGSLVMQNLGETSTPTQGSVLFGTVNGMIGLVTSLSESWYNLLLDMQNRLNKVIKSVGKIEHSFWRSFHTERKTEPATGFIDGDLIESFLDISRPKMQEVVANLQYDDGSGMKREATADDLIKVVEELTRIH

As to `N#Cc1ccc(CN2CCC3(CC2)COc2c3ccc3c2CN(C2CCC(=O)NC2=O)C3=O)cc1` (centres unmarked) [Compound A195, 4-((7-(2,6-dioxopiperidin-3-yl)-6-oxo-7,8-dihydro-2H,6H-spiro[furo[2,3-e]isoindole-3,4′-piperidin]-1′-yl)methyl)benzonitrile], the DC50 was over 0.5 µM and the Dmax was under 40%.
For the molecule `O=C1CCC(N2Cc3c(ccc4c3OCC43CCN(Cc4ccc(-c5ccccc5)cc4)CC3)C2=O)C(=O)N1` (centres unmarked) [Compound A25, 3-(1′-([1,1′-biphenyl]-4-ylmethyl)-6-oxo-6,8-dihydro-2H,7H-spiro[furo[2,3-e]isoindole-3,4′-piperidin]-7-yl)piperidine-2,6-dione], the DC50 was over 0.5 µM and the Dmax lay in the range of 40 to 60%.
On the same counts, the results for `O=C1CCC(N2Cc3c(ccc4c3OCC43CCN(Cc4ccc(S(=O)(=O)c5ccccc5)cc4)CC3)C2=O)C(=O)N1` (centres unmarked) [Compound A340, 3-(6-oxo-1′-(4-(phenylsulfonyl)benzyl)-6,8-dihydro-2H,7H-spiro[furo[2,3-e]isoindole-3,4′-piperidin]-7-yl)piperidine-2,6-dione] are over 0.5 µM and 40 to 60%.
Consider `O=C1CCC(N2Cc3c(ccc4c3OCC43CCN(Cc4cccc5[nH]cc(Cl)c45)CC3)C2=O)C(=O)N1` (centres unmarked) [Compound A141, 3-(1′-((3-chloro-1H-indol-4-yl)methyl)-6-oxo-6,8-dihydro-2H,7H-spiro[furo[2,3-e]isoindole-3,4′-piperidin]-7-yl)piperidine-2,6-dione], for which the DC50 was under 0.05 µM and the Dmax is 60 to 80%.
`CS(=O)(=O)c1ccc(CN2CCC3(CC2)COc2c3ccc3c2CN(C2CCC(=O)NC2=O)C3=O)cc1` (centres unmarked) [Compound A236, 3-(1′-(4-(methylsulfonyl)benzyl)-6-oxo-6,8-dihydro-2H,7H-spiro[furo[2,3-e]isoindole-3,4′-piperidin]-7-yl)piperidine-2,6-dione]: the DC50 was over 0.5 µM and the Dmax was under 40%.
For `O=C1CCC(N2Cc3c(ccc4c3OCC43CCN(Cc4ccc5cc[nH]c5n4)CC3)C2=O)C(=O)N1` (centres unmarked) [Compound A66, 3-(1′-((1H-pyrrolo[2,3-b]pyridin-6-yl)methyl)-6-oxo-6,8-dihydro-2H,7H-spiro[furo[2,3-e]isoindole-3,4′-piperidin]-7-yl)piperidine-2,6-dione], the DC50 is over 0.5 µM and the Dmax was in the range of 40 to 60%.
Regarding `O=C1CCC(N2Cc3c(ccc4c3OCC43CCN(Cc4cccnc4Cl)CC3)C2=O)C(=O)N1` (centres unmarked) [Compound A249, 3-(1′-((2-chloropyridin-3-yl)methyl)-6-oxo-6,8-dihydro-2H,7H-spiro[furo[2,3-e]isoindole-3,4′-piperidin]-7-yl)piperidine-2,6-dione], the DC50 is over 0.5 µM and the Dmax was under 40%.
Regarding `O=C1CCC(N2Cc3c(ccc4c3OCC43CCN(Cc4cccc(Oc5ccccn5)c4)CC3)C2=O)C(=O)N1` (centres unmarked) [Compound A101, 3-(6-oxo-1′-(3-(pyridin-2-yloxy)benzyl)-6,8-dihydro-2H,7H-spiro[furo[2,3-e]isoindole-3,4′-piperidin]-7-yl)piperidine-2,6-dione], the DC50 was under 0.05 µM and the Dmax lay in the range of 60 to 80%.
As for `O=C1CCC(N2Cc3c(ccc4c3OCC43CCN(Cc4cnn(-c5ccc(F)cc5)c4)CC3)C2=O)C(=O)N1` (centres unmarked) [Compound A312, 3-(1′-((1-(4-fluorophenyl)-1H-pyrazol-4-yl)methyl)-6-oxo-6,8-dihydro-2H,7H-spiro[furo[2,3-e]isoindole-3,4′-piperidin]-7-yl)piperidine-2,6-dione], the DC50 was over 0.5 µM and the Dmax was 40 to 60%.
With `O=C1CCC(N2Cc3c(ccc4c3OCC43CCN(Cc4nccc5c4CCCC5)CC3)C2=O)C(=O)N1` (centres unmarked) [Compound A324, 3-(6-oxo-1′-((5,6,7,8-tetrahydroisoquinolin-1-yl)methyl)-6,8-dihydro-2H,7H-spiro[furo [2,3-e]isoindole-3,4′-piperidin]-7-yl)piperidine-2,6-dione], the DC50 was over 0.5 µM and the Dmax is 40 to 60%.
Consider `O=C1CC[C@H](N2Cc3c(ccc4c3OCC43CCN(Cc4cccc(-c5cnn(C(F)(F)F)c5)c4)CC3)C2=O)C(=O)N1` [Compound A282, (S)-3-(6-oxo-1′-(3-(1-(trifluoromethyl)-1H-pyrazol-4-yl)benzyl)-6,8-dihydro-2H,7H-spiro[furo[2,3-e]isoindole-3,4′-piperidin]-7-yl)piperidine-2,6-dione], for which the DC50 was under 0.05 µM and the Dmax lay within 60 to 80%.
In the case of `O=C1CCC(N2Cc3c(ccc4c3OCC43CCN(Cc4cccc(C5CC5)c4)CC3)C2=O)C(=O)N1` (centres unmarked) [Compound A204, 3-(1′-(3-cyclopropylbenzyl)-6-oxo-6,8-dihydro-2H,7H-spiro[furo[2,3-e]isoindole-3,4′-piperidin]-7-yl)piperidine-2,6-dione], the DC50 was over 0.5 µM and the Dmax was in the range of 40 to 60%.
Regarding `O=C1CCC(N2Cc3c(ccc4c3OCC43CCN(Cc4coc(-c5ccccc5)n4)CC3)C2=O)C(=O)N1` (centres unmarked) [Compound A83, 3-(6-oxo-1′-((2-phenyloxazol-4-yl)methyl)-6,8-dihydro-2H,7H-spiro[furo[2,3-e]isoindole-3,4′-piperidin]-7-yl)piperidine-2,6-dione], the DC50 is over 0.5 µM and the Dmax is under 40%.
On the same counts, the results for `O=C1CCC(N2Cc3c(ccc4c3OCC43CCN(Cc4ccn(-c5ccccc5)n4)CC3)C2=O)C(=O)N1` (centres unmarked) [Compound A251, 3-(6-oxo-1′-((1-phenyl-1H-pyrazol-3-yl)methyl)-6,8-dihydro-2H,7H-spiro[furo[2,3-e]isoindole-3,4′-piperidin]-7-yl)piperidine-2,6-dione] are over 0.5 µM and under 40%.
For `O=C1CCC(N2Cc3c(ccc4c3OCC43CCN(Cc4cccc(OC(F)F)c4)CC3)C2=O)C(=O)N1` (centres unmarked) [Compound A90, 3-(1′-(3-(difluoromethoxy)benzyl)-6-oxo-6,8-dihydro-2H,7H-spiro[furo[2,3-e]isoindole-3,4′-piperidin]-7-yl)piperidine-2,6-dione], in that order: over 0.5 µM and under 40%.
As to `O=C1CCC(N2Cc3c(ccc4c3OCC43CCN(Cc4ncccn4)CC3)C2=O)C(=O)N1` (centres unmarked) [Compound A206, 3-(6-oxo-1′-(pyrimidin-2-ylmethyl)-6,8-dihydro-2H,7H-spiro[furo[2,3-e]isoindole-3,4′-piperidin]-7-yl)piperidine-2,6-dione], the DC50 was over 0.5 µM and the Dmax is under 40%.
As for `O=C1CCC(N2Cc3c(ccc4c3OCC43CCN(Cc4cccc(N5CCOCC5)c4)CC3)C2=O)C(=O)N1` (centres unmarked) [Compound A97, 3-(1′-(3-morpholinobenzyl)-6-oxo-6,8-dihydro-2H,7H-spiro[furo[2,3-e]isoindole-3,4′-piperidin]-7-yl)piperidine-2,6-dione], the DC50 was over 0.5 µM and the Dmax lay within 40 to 60%.
`COc1ccccc1CN1CCC2(CC1)COc1c2ccc2c1CN(C1CCC(=O)NC1=O)C2=O` (centres unmarked) [Compound A215, 3-(1′-(2-methoxybenzyl)-6-oxo-6,8-dihydro-2H,7H-spiro[furo[2,3-e]isoindole-3,4′-piperidin]-7-yl)piperidine-2,6-dione]: the DC50 was in the range of 0.2 to 0.5 µM and the Dmax is 40 to 60%.
For `O=C1CCC(N2Cc3c(ccc4c3OCC43CCN(Cc4cncc5ccccc45)CC3)C2=O)C(=O)N1` (centres unmarked) [Compound A43, 3-(1′-(isoquinolin-4-ylmethyl)-6-oxo-6,8-dihydro-2H,7H-spiro[furo[2,3-e]isoindole-3,4′-piperidin]-7-yl)piperidine-2,6-dione], in that order: over 0.5 µM and 40 to 60%.
On the same counts, the results for `O=C1CC[C@H](N2Cc3c(ccc4c3OCC43CCN(Cc4ccc5c(c4)C(=O)NC5)CC3)C2=O)C(=O)N1` [Compound A171, (S)-3-(6-oxo-1′-((3-oxoisoindolin-5-yl)methyl)-6,8-dihydro-2H,7H-spiro[furo[2,3-e]isoindole-3,4′-piperidin]-7-yl)piperidine-2,6-dione] are 0.05 to 0.2 µM and 60 to 80%.
On to `Cn1ccc(COc2cccc(CN3CCC4(CC3)COc3c4ccc4c3CN(C3CCC(=O)NC3=O)C4=O)c2)n1` (centres unmarked) [Compound A167, 3-(1′-(3-((1-methyl-1H-pyrazol-3-yl)methoxy)benzyl)-6-oxo-6,8-dihydro-2H,7H-spiro[furo[2,3-e]isoindole-3,4′-piperidin]-7-yl)piperidine-2,6-dione], for which the DC50 lay within 0.05 to 0.2 µM and the greatest degradation seen (Dmax) fell in the range of 40 to 60%.
As for `O=C1CCC(N2Cc3c(ccc4c3OCC43CCN(Cc4cnn(-c5ccccc5)c4)CC3)C2=O)C(=O)N1` (centres unmarked) [Compound A221, 3-(6-oxo-1′-((1-phenyl-1H-pyrazol-4-yl)methyl)-6,8-dihydro-2H,7H-spiro[furo[2,3-e]isoindole-3,4′-piperidin]-7-yl)piperidine-2,6-dione], the DC50 was over 0.5 µM and the Dmax was in the range of 40 to 60%.
Turning to `O=C1CC[C@H](N2Cc3c(ccc4c3OCC43CCN(CC4CCCN(C(=O)c5ccccc5)C4)CC3)C2=O)C(=O)N1` (stereo partly drawn) [Compound A305, (3S)-3-(1′-((1-benzoylpiperidin-3-yl)methyl)-6-oxo-6,8-dihydro-2H,7H-spiro[furo[2,3-e]isoindole-3,4′-piperidin]-7-yl)piperidine-2,6-dione], the DC50 is over 0.5 µM and the Dmax is 40 to 60%.
Turning to `O=C1CCC(N2Cc3c(ccc4c3OCC43CCN(Cc4ccc5oncc5c4)CC3)C2=O)C(=O)N1` (centres unmarked) [Compound A60, 3-(1′-(benzo[d]isoxazol-5-ylmethyl)-6-oxo-6,8-dihydro-2H,7H-spiro[furo[2,3-e]isoindole-3,4′-piperidin]-7-yl)piperidine-2,6-dione], the DC50 is over 0.5 µM and the Dmax is 40 to 60%.
In the case of `O=C1CCC(N2Cc3c(ccc4c3OCC43CCN(Cc4cccc5cc[nH]c45)CC3)C2=O)C(=O)N1` (centres unmarked) [Compound A59, 3-(1′-((1H-indol-7-yl)methyl)-6-oxo-6,8-dihydro-2H,7H-spiro[furo[2,3-e]isoindole-3,4′-piperidin]-7-yl)piperidine-2,6-dione], the DC50 fell in the range of 0.05 to 0.2 µM and the Dmax was over 80%.

Values taken from patent publication US20250215012A1, “IKZF2 DEGRADERS AND USES THEREOF” (REGENTS OF THE UNIVERSITY OF MICHIGAN, priority 2022, published 2025).
